Our source for the EC50 values is patent US8865756B2, “Inhibitors of HCV NS5A” (Presidio Pharmaceuticals, Inc., priority 2008, dated 2014).

A value given as a limit tells only on which side of the number the result lay.

The test system of the test is HCV 1b_Huh-Luc/Neo-ET cell line persistently expressing a bicistronic genotype 1b replicon in Huh 7 cells. Description: HCV replicon assay (luciferase readout). The format is cell-based. Conditions: Hepatitis C virus, Huh-7, 72 h, read-out: Inhibition of HCV genotype 1b. A digest of the protocol:
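Huh 7 cells carrying a genotype 1b luciferase/neo replicon treated in triplicate for 72 h, then luciferase activity measured. Signal expressed as % of control; EC50 from four-parameter logistic fit, determined several times.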
As for `COC(=O)N[C@@H](C(=O)N1CCC[C@H]1c1ncc(C#Cc2ccc(-c3ccc(-c4cnc([C@@H]5CCCN5C(=O)[C@@H](c5ccccc5)N5CCCCC5)[nH]4)cc3)cc2)[nH]1)c1ccccc1` [Compound 752], the EC50 was under 1 nM.

`COC(=O)N[C@@H](C(=O)N1CCC[C@H]1c1ncc(C#Cc2ccc(-c3ccc(-c4cnc([C@@H]5CCCN5C(=O)[C@H](NC(=O)OC(C)(C)C)c5ccccc5)[nH]4)cc3)cc2)[nH]1)c1ccccc1` [Compound 753]: the EC50 was under 1 nM.

Regarding `COC(=O)N[C@@H](C(=O)N1CCC[C@H]1c1ncc(C#Cc2ccc(-c3ccc(-c4cnc([C@@H]5CCCN5C(=O)[C@H](NC(=O)C5CC5)c5ccccc5)[nH]4)cc3)cc2)[nH]1)c1ccccc1` [Compound 754], the EC50 was under 1 nM.

As to `COC(=O)N[C@@H](C(=O)N1CCC[C@H]1c1ncc(C#Cc2ccc(-c3ccc(-c4cnc([C@@H]5CCCN5C(=O)[C@@H](c5ccccc5)N(C)C)[nH]4)cc3)cc2)[nH]1)c1ccccc1` [Compound 755], the EC50 is under 1 nM.

For the molecule `COC(=O)N[C@H](C(=O)N1CCC[C@H]1c1ncc(C#Cc2ccc(-c3ccc(-c4cnc([C@@H]5CCCN5C(=O)[C@@H](NC(=O)OC)C(C)C)[nH]4)cc3)cc2)[nH]1)C(C)C` [Compound 756], the EC50 was under 1 nM.

As to `CC(C)(C)OC(=O)N[C@@H](C(=O)N1CCC[C@H]1c1ncc(C#Cc2ccc(-c3ccc(-c4cnc([C@@H]5CCCN5C(=O)[C@H](NC(=O)OC(C)(C)C)c5ccccc5)[nH]4)cc3)cc2)[nH]1)c1ccccc1` [Compound 757], the EC50 was under 1 nM.

On to `COC(=O)N[C@@H](C(=O)N1CCC[C@H]1c1ncc(C#Cc2ccc(-c3ccc(-c4cnc([C@@H]5CCCN5C(=O)[C@@H](c5ccccc5)N5CCOCC5)[nH]4)cc3)cc2)[nH]1)c1ccccc1` [Compound 758], for which the EC50 was under 1 nM.

As to `COC(=O)N[C@@H](C(=O)N1CCC[C@H]1c1ncc(C#Cc2ccc(-c3ccc(-c4cnc([C@@H]5CCCN5C(=O)[C@@H](c5ccccc5)N5CCCC5)[nH]4)cc3)cc2)[nH]1)c1ccccc1` [Compound 759], the EC50 is under 1 nM.

Turning to `O=C(N[C@@H](C(=O)N1CCC[C@H]1c1ncc(C#Cc2ccc(-c3ccc(-c4cnc([C@@H]5CCCN5C(=O)[C@H](NC(=O)C5CC5)c5ccccc5)[nH]4)cc3)cc2)[nH]1)c1ccccc1)C1CC1` [Compound 760], the EC50 is under 1 nM.

For `O=C(N[C@@H](C(=O)N1CCC[C@H]1c1ncc(C#Cc2ccc(-c3ccc(-c4cnc([C@@H]5CCCN5C(=O)[C@H](NC(=O)N5CCOCC5)c5ccccc5)[nH]4)cc3)cc2)[nH]1)c1ccccc1)N1CCOCC1` [Compound 761], the EC50 is under 1 nM.

`O=C(N[C@@H](C(=O)N1CCC[C@H]1c1ncc(C#Cc2ccc(-c3ccc(-c4cnc([C@@H]5CCCN5C(=O)[C@H](NC(=O)N5CC[C@H](O)C5)c5ccccc5)[nH]4)cc3)cc2)[nH]1)c1ccccc1)N1CC[C@H](O)C1` [Compound 762]: the EC50 is under 1 nM.

As to `O=C(N[C@@H](C(=O)N1CCC[C@H]1c1ncc(C#Cc2ccc(-c3ccc(-c4cnc([C@@H]5CCCN5C(=O)[C@H](NC(=O)N5CC[C@@H](O)C5)c5ccccc5)[nH]4)cc3)cc2)[nH]1)c1ccccc1)N1CC[C@@H](O)C1` [Compound 763], the EC50 is under 1 nM.

Consider `COC(=O)N[C@@H](C(=O)N1CCC[C@H]1c1ncc(-c2ccc(C#Cc3ccc4nc([C@@H]5CCCN5C(=O)[C@H](NC(=O)OC)c5ccccc5)[nH]c4c3)cc2)[nH]1)c1ccccc1` [Compound 800], for which the EC50 was under 1 nM.

Regarding `CC(C)(C)OC(=O)N[C@@H](C(=O)N1CCC[C@H]1c1ncc(-c2ccc(C#Cc3ccc4nc([C@@H]5CCCN5C(=O)[C@H](NC(=O)OC(C)(C)C)c5ccccc5)[nH]c4c3)cc2)[nH]1)c1ccccc1` [Compound 801], the EC50 is under 1 nM.

As to `COC(=O)N[C@H](C(=O)N1CCC[C@H]1c1ncc(-c2ccc(C#Cc3ccc4nc([C@@H]5CCCN5C(=O)[C@@H](NC(=O)OC)C(C)C)[nH]c4c3)cc2)[nH]1)C(C)C` [Compound 802], the EC50 is under 1 nM.

Turning to `O=C(N[C@@H](C(=O)N1CCC[C@H]1c1nc(-c2ccc3cc(C#Cc4cnc([C@@H]5CCCN5C(=O)[C@H](NC(=O)C5CC5)c5ccccc5)[nH]4)ccc3c2)c[nH]1)c1ccccc1)C1CC1` [Compound 804], the EC50 was under 1 nM.

On to `CC1(O)CCC(C(=O)N[C@@H](C(=O)N2CCC[C@H]2c2nc(-c3ccc4cc(C#Cc5cnc([C@@H]6CCCN6C(=O)[C@H](NC(=O)N6CCC(C)(O)CC6)c6ccccc6)[nH]5)ccc4c3)c[nH]2)c2ccccc2)CC1` (stereo partly shown) [Compound 805], for which the EC50 was under 1 nM.

With `O=C(N[C@@H](C(=O)N1CCC[C@H]1c1nc(-c2ccc3cc(C#Cc4cnc([C@@H]5CCCN5C(=O)[C@H](NC(=O)N5CC[C@H](O)C5)c5ccccc5)[nH]4)ccc3c2)c[nH]1)c1ccccc1)N1CC[C@H](O)C1` [Compound 806], the EC50 was in the range of 1 to 9.9 nM.

For the molecule `O=C(N[C@@H](C(=O)N1CCC[C@H]1c1nc(-c2ccc3cc(C#Cc4cnc([C@@H]5CCCN5C(=O)[C@H](NC(=O)N5CC[C@@H](O)C5)c5ccccc5)[nH]4)ccc3c2)c[nH]1)c1ccccc1)N1CC[C@@H](O)C1` [Compound 807], the EC50 is 1 to 9.9 nM.

With `O=C(N[C@@H](C(=O)N1CCC[C@H]1c1nc(-c2ccc3cc(C#Cc4cnc([C@@H]5CCCN5C(=O)[C@H](NC(=O)N5CCOCC5)c5ccccc5)[nH]4)ccc3c2)c[nH]1)c1ccccc1)N1CCOCC1` [Compound 808], the EC50 is under 1 nM.

For the molecule `COC(=O)N[C@@H](C(=O)N1CCC[C@H]1c1nc2ccc(C#Cc3ccc4nc([C@@H]5CCCN5C(=O)[C@H](NC(=O)OC)c5ccccc5)[nH]c4c3)cc2[nH]1)c1ccccc1` [Compound 851], the EC50 was under 1 nM.

In the case of `COC(=O)N[C@H](C(=O)N1CCC[C@H]1c1nc2ccc(C#Cc3ccc4nc([C@@H]5CCCN5C(=O)[C@@H](NC(=O)OC)C(C)C)[nH]c4c3)cc2[nH]1)C(C)C` [Compound 852], the EC50 is under 1 nM.

As for `COC(=O)N[C@@H](C(=O)N1CCC[C@H]1c1nc2ccc(C#Cc3ccc4nc([C@@H]5CCCN5C(=O)[C@H](NC(=O)OC)C(C)C)[nH]c4c3)cc2[nH]1)C(C)C` [Compound 853], the EC50 is under 1 nM.

With `COC(=O)N[C@H](C(=O)N1CCC[C@H]1c1ncc(-c2ccc(C#Cc3ccc4nc([C@@H]5CCCN5C(=O)[C@@H](c5ccccc5)N(C)C)[nH]c4c3)cc2)[nH]1)C(C)C` [Compound 860], the EC50 is under 1 nM.

Consider `COC(=O)N[C@@H](C(=O)N1CCC[C@H]1c1ncc(-c2ccc(C#Cc3ccc4nc([C@@H]5CCCN5C(=O)[C@H](NC(=O)OC)C(C)C)[nH]c4c3)cc2)[nH]1)C(C)C` [Compound 861], for which the EC50 lay within 10 to 999 nM.

For `COC(=O)N[C@H](C(=O)N1CCC[C@H]1c1ncc(-c2ccc(C#Cc3ccc4nc([C@@H]5CCCN5C(=O)[C@@H](NC(=O)OC)[C@@H](C)OC)[nH]c4c3)cc2)[nH]1)[C@@H](C)OC` [Compound 862], the EC50 was under 1 nM.

Turning to `COC(=O)N[C@H](C(=O)N1CCC[C@H]1c1ncc(-c2ccc(C#Cc3ccc4nc([C@@H]5CCCN5C(=O)[C@@H](NC(=O)OC)[C@@H](C)O)[nH]c4c3)cc2)[nH]1)[C@@H](C)O` [Compound 863], the EC50 was under 1 nM.

Regarding `COC(=O)N[C@H](C(=O)N1CCC[C@H]1c1nc2ccc(C#Cc3ccc(-c4cnc([C@@H]5CCCN5C(=O)[C@H](c5ccccc5)N(C)C)[nH]4)cc3)cc2[nH]1)C(C)C` [Compound 864], the EC50 was under 1 nM.
